# Target: T1, β2-AR-mCherry, endogenous Gs (Homo sapiens, UniProt P07550)
# T1 construct: expressed in transfected cells; host or cells: native (not urea-stripped) membranes of HEK293T cells transiently transfected with β2-AR-mCherry
# Assay: activation of endogenous Gs (BODIPY-FL-GTPγS), native membranes expressing β2-AR-mCherry
# Assay type: biochemical
# Procedure: Membranes were prepared following a published protocol[56] from HEK293T cells transiently transfected with the appropriate DNA (β2-AR-mCherry, β2-mCerulean, […]-mCherry, β2-AR-ICL3 or β2-AR-Sp). Cells were collected in culture medium and washed twice with PBS by centrifugation (300 × g, 3 min, ambient temperature). […] Cells in solution A were lysed gently (30 strokes) in a chilled Dounce homogenizer in the presence of 1.5 μg/mL aprotinin, 1.5 μg/mL leupeptin, 5 μg/mL phenylmethylsulfonyl fluoride (PMSF) and 1 mM dithiothreitol (DTT). Nuclei and intact cells were eliminated by centrifugation at 1000 × g, 5 min, 4 °C. All subsequent centrifugation steps were performed in a TLA100.4 rotor at 135,000 × g, 30 min, 4 °C. […] HEK293T cells in 15 cm dishes were transiently transfected with β2-AR-mCherry or […]-mCherry plasmid as described in the section on “Cells, Cell culture and Transfections,” earlier. Membranes were isolated and treated with urea as detailed (Membrane preparations). Urea treatment denatures and inactivates the endogenous G proteins, allowing the reconstitution of desired combinations of Gα, and βγ subunits and specific C terminus peptides. Reconstitution reactions were assembled on ice. […] The agonist-stimulated change in fluorescence counts was calculated by subtracting the early stimulation spectra from the post-stimulation spectra. Samples treated with BODIPY buffer (no agonist) were processed similarly, to determine the increase in BODIPY fluorescence without agonist stimulation, which represented nonspecific and basal incorporation of the BODIPY in the reaction time. Specific, agonist-induced change in BODIPY fluorescence was calculated by subtracting the increase in buffer-treated samples from the agonist-mediated increase. This change in fluorescence (increase) provided a measure of BODIPY-FL-GTPγS incorporation into the Gα-subunit. Each reaction provided three agonist and three mock readings. […] BODIPY incorporation was monitored as above. […] The experiment was repeated with mock buffer and agonist-specific G-protein activation was calculated.
substance,measurement,setting,value
"DTENIRFVFAAVKDTILQLNLKE(Anp)NLV [PC-Qp, photocleavable Qp, Y356 replaced by Anp]",primed G-protein activation response after UV before mixing,PC-Qp exposed to UV before mixing with other reactants,lost
same,persistence of enhanced G-protein activation after photocleavage,"PC-Qp, UV after addition to membranes",120 s
same,increase in G-protein activation in response to fenoterol,"fenoterol 10 μM, 3 min, Qp 30 μM or PC-Qp 50 μM, no UV",~ 7 fold

# — article PMC6811539, “Minute-scale persistence of a GPCR conformation state triggered by non-cognate G protein interactions primes signaling” (Nature Communications, 2019)
